In ChEMBL document CHEMBL1201862, “PubChem BioAssay data set” (2004):
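Protocol summary: plate cells (96-well), add compound at 5 concentrations, incubate 48 h, interpolate endpoints linearly. Abbreviation: GI50, concentration required for 50% inhibition of growth.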 Active and inactive are the calls of the source. Cut-off read from the data, not from the text of the source: active = GI50 up to about 1.1 µM and inactive = higher.

What was measured:
Experiment in all cases: growth of human tumour cells (NCI), 48 h
[1] = system: U-251
[2] = system: LOX IMVI
[3] = system: HOP-92
[4] = system: OVCAR-8
[5] = system: UACC-62
[6] = system: SR
[7] = system: SK-OV-3
[8] = system: Malme-3M
[9] = system: HCT-15
[10] = system: HCC 2998
[11] = system: SF-268
[12] = system: COLO 205
[13] = system: A549
[14] = system: TK-10
[15] = system: HOP-62
[16] = system: SK-MEL-5
[17] = system: NCI/ADR-RES
[18] = system: SK-MEL-2
[19] = system: SN12C
[20] = system: IGROV-1

Row | Structure (SMILES) | GI50 [1] | GI50 [2] | GI50 [3] | GI50 [4] | GI50 [5] | GI50 [6] | GI50 [7] | GI50 [8] | GI50 [9] [µM] | GI50 [10] | GI50 [11] | GI50 [12] | GI50 [13] | GI50 [14] | GI50 [15] | GI50 [16] | GI50 [17] | GI50 [18] | GI50 [19] | GI50 [20]
1 | COc1ccc(C(=O)/C(Br)=C/C(=O)O)cc1 | 15.6 µM (inactive) | 20.5 µM (inactive) | 28.4 µM (inactive) | 21 µM (inactive) | 7.91 µM (inactive) | 25.1 µM (inactive) | 69.8 µM (inactive) | 14.8 µM (inactive) | 23.5 | 19.2 µM (inactive) | 31.6 µM (inactive) | 18.7 µM (inactive) | 40.2 µM (inactive) | 51.3 µM (inactive) | 17.4 µM (inactive) | 20.7 µM (inactive) | 21.3 µM (inactive) | 9.48 µM (inactive) | 37.8 µM (inactive) | –
2 | CC(C)c1ccccc1SCc1cc(=O)cc(CSc2ccccc2C(C)C)o1 | 22 µM (inactive) | 26.8 µM (inactive) | 15.2 µM (inactive) | 22.7 µM (inactive) | 16.7 µM (inactive) | 31.7 µM (inactive) | 22.1 µM (inactive) | 25.2 µM (inactive) | 24.7 | 30.3 µM (inactive) | 16.8 µM (inactive) | 37.2 µM (inactive) | 19.7 µM (inactive) | 17.9 µM (inactive) | 20.7 µM (inactive) | 24.1 µM (inactive) | 17.7 µM (inactive) | 17.4 µM (inactive) | – | 14.5 µM (inactive)
3 | COc1ccc2nc3ccc(OC)cc3c([S+]([O-])CCCl)c2c1 (stereo unspecified) | 14.5 µM (inactive) | 2.4 µM (inactive) | 2.49 µM (inactive) | 2.67 µM (inactive) | 15.8 µM (inactive) | 2.67 µM (inactive) | 20.7 µM (inactive) | 1.69 µM (inactive) | 2.65 | 23.2 µM (inactive) | 6.76 µM (inactive) | 1.77 µM (inactive) | 20.9 µM (inactive) | 3.81 µM (inactive) | 18.1 µM (inactive) | 14.9 µM (inactive) | 15.2 µM (inactive) | 17.7 µM (inactive) | 1.94 µM (inactive) | 2.48 µM (inactive)
4 | CCC1(c2ccccc2)C(=O)N=C(c2ccccc2)N1CCc1ccccc1 (stereo unspecified) | > 100 µM (inactive) | > 100 µM (inactive) | > 100 µM (inactive) | > 100 µM (inactive) | > 100 µM (inactive) | > 100 µM (inactive) | > 100 µM (inactive) | > 100 µM (inactive) | > 100 | > 100 µM (inactive) | > 100 µM (inactive) | > 100 µM (inactive) | > 100 µM (inactive) | > 100 µM (inactive) | > 100 µM (inactive) | > 100 µM (inactive) | > 100 µM (inactive) | > 100 µM (inactive) | > 100 µM (inactive) | > 100 µM (inactive)
5 | CC(NC(C#N)CC12CC3CC(CC(C3)C1)C2)c1ccccc1 (stereo unspecified) | 42.2 µM (inactive) | 17.8 µM (inactive) | 0.753 µM (active) | 60.8 µM (inactive) | 84.3 µM (inactive) | 28.4 µM (inactive) | 59.6 µM (inactive) | > 100 µM (inactive) | 56.8 | > 100 µM (inactive) | 47.4 µM (inactive) | 38.1 µM (inactive) | > 100 µM (inactive) | > 100 µM (inactive) | > 100 µM (inactive) | > 100 µM (inactive) | > 100 µM (inactive) | – | – | 32.4 µM (inactive)
6 | CCOC(=O)C(NC(=O)Nc1ccccc1)(Nc1cccc(Cl)c1)C(F)(F)F (stereo unspecified) | > 100 µM (inactive) | > 100 µM (inactive) | 39.8 µM (inactive) | > 100 µM (inactive) | > 100 µM (inactive) | > 100 µM (inactive) | > 100 µM (inactive) | > 100 µM (inactive) | > 100 | > 100 µM (inactive) | > 100 µM (inactive) | > 100 µM (inactive) | > 100 µM (inactive) | > 100 µM (inactive) | > 100 µM (inactive) | > 100 µM (inactive) | > 100 µM (inactive) | > 100 µM (inactive) | > 100 µM (inactive) | > 100 µM (inactive)
